Experimental data reported in patent US20240050463A1, “THERAPEUTIC COMPOSITIONS AND METHODS FOR TREATING HEPATITIS B” (ARBUTUS BIOPHARMA CORPORATION, priority 2016, published 2024).

Legend:
[1] = system: HBV rcDNA in AML12-HBV10 cells; experiment: Inhibition of rcDNA in AML12-HBV10 cells (bDNA assay), checkerboard, MacSynergy II; assay type: cell-based, HBV (mouse hepatocyte cell line); details: Hepatitis B virus, AML12HBV10, in Mus musculus, expected from additive interaction; Compound 3 0.3125 μM; ETV μM in c0 of the row
Method: The two inhibitors were tested both singly as well as in combinations in a checkerboard fashion such that each concentration of inhibitor A was combined with each concentration of inhibitor B to determine their combination effects on inhibition of rcDNA production.

[2] = system: D type HBV in primary human hepatocytes (PHH); experiment: HBV DNA in culture supernatants of HBV-infected primary human hepatocytes (qPCR), MacSynergy; assay type: cell-based; details: COMPOUND 25 0.00 nM
Method: The mouse liver perfusion was applied to isolate PHHs. The isolated hepatocytes were further purified by Percoll. The cells were resuspended with culture media and seeded into the 96-well plates (6×10^4 cell/well) or 48-well plates (1.2×10^5 cell/well). The PHHs were infected with a D type HBV one day post seeding (day 1).
On day 2, the test compounds were diluted and added into the cell culture plates. The culture media containing the compounds were refreshed every other day. The cell culture supernatants were collected on day 8 for the HBV DNA and antigen determinations.
The compounds were tested at 7 concentrations, 3-fold dilution, in triplicate.
Two compounds were tested at 5×5 matrix, in triplicate plates.
DNA in the culture supernatants harvested on days 8 were isolated with QIAamp 96 DNA Blood Kit (Qiagen-51161). For each sample, 100 μl of the culture supernatants was used to extract DNA. The DNA was eluted with 100 μl, 150 μl or 180 μl of AE. HBV DNA in the culture supernatants was quantified by qPCR. The combination effect was analyzed by the MacSynergy software. The primers are described below.

hepatitis B virus (HBV) = experiment: Serum HBsAg in humanized liver chimeric mouse model of chronic HBV infection (GS HBsAg EIA 3.0); assay type: in vivo; details: Compound 3 oral 100 mg/kg twice daily, SIRNA-NP intravenous 3 mg/kg every 2 weeks, ETV oral 1.2 μg/kg daily, pegIFN α-2a subcutaneous 30 μg/kg twice a week
Method: This work was conducted in a well-established humanized liver chimeric mouse model of chronic hepatitis B virus (HBV) infection (Tsuge et al., Hepatology, 42(5), 1046-54 (2005)). A persistent level of HBV infection was established in the animals prior to the treatment phase which started at Day 0.
The anti-HBV effects were assessed based on serum HBsAg levels using the GS HBsAg EIA 3.0 enzyme linked immunosorbent assay kit from Bio-Rad Laboratories as per manufacturer instructions; and serum HBV DNA levels measured from total extracted DNA using a quantitative PCR assay (primer/probe sequences from Tanaka et al., Journal of Medical Virology, 72, 223-229 (2004)).

CC[C@@H](C)NS(=O)(=O)c1ccc(F)c(C(=O)Nc2ccc(F)c(F)c2)c1 [Compound 3]
inhibition at 0.3125 µM [1]: 71%
AVERAGE % INHIBITION, HBV DNA ([2]; COMPOUND 3 61.73 nM): −28.13%
AVERAGE % INHIBITION, HBV DNA ([2]; COMPOUND 3 185.19 nM): −25.93%
AVERAGE % INHIBITION, HBV DNA ([2]; COMPOUND 3 555.56 nM): −3.32%
AVERAGE % INHIBITION, HBV DNA ([2]; COMPOUND 3 1666.67 nM): 25.94%
AVERAGE % INHIBITION, HBV DNA ([2]; COMPOUND 3 5000.00 nM): 74.78%

C=C1[C@H](CO)[C@@H](O)C[C@@H]1n1cnc2c(=O)[nH]c(N)nc21 [ETV, Entecavir]
Serum HBsAg (± SEM) (hepatitis B virus (HBV); Day 0 (start of treatment)): 2649 ± 282 IU/mL
Serum HBsAg (± SEM) (hepatitis B virus (HBV); Day 21): 2975 ± 629 IU/mL
